The numbers were not newly measured in patent US7312209B2, “Acridone inhibitors of IMPDH enzyme” (Bristol-Myers Squibb Company, priority 2001, dated 2007), which cites them from elsewhere.

The test system of data set [1] is IMPDH types I and II. To be noted: RT-PCR; low and high concentrations.
The subject of data set [2] is IL-2, IL-4, and IFN. Conditions: RT-PCR; Rol 10^−7 M, MPA 10^−8 M.
The test system of data set [3] is antigen-specific T lymphocyte responses. To be noted: in combination with Rol 10^−7 M.

`COc1ccc(C2CNC(=O)C2)cc1OC1CCCC1` (stereo not drawn) [Rol, 4-[3-(cyclopentyloxy)-4-methoxy-phenyl]-2-pyrrolidinone]: the “gene expression for IMPDH types I and II” value in data set [1] is “remained unaffected”. Moreover, in data set [2], the “downregulation in the generation of proinflammatory cytokines (IL-2, IL-4, IFN)” value was “no significant downregulation”.

In the case of `C=CC[C@@H]1/C=C(\C)C[C@H](C)C[C@H](OC)[C@H]2O[C@@](O)(C(=O)C(=O)N3CCCC[C@H]3C(=O)O[C@H](/C(C)=C/[C@@H]3CC[C@@H](O)[C@H](OC)C3)[C@H](C)[C@@H](O)CC1=O)[C@H](C)C[C@@H]2OC` [tacrolimus], in data set [3], the “synergistic effect on inhibition of antigen-induced proliferation” value is recorded as “little or no synergistic effect”.

Regarding `COc1c(C)c2c(c(O)c1C/C=C(\C)CCC(=O)O)C(=O)OC2` [MPA, mycophenolic acid], the “gene expression for IMPDH types I and II” value in data set [1] was “remained unaffected”. Also, the “synergistic effect on inhibition of antigen-induced proliferation” value in data set [3] is “marked synergistic effect”. Further, the “downregulation in the generation of proinflammatory cytokines (IL-2, IL-4, IFN)” value in data set [2] is “no significant downregulation”.
